Data published in ChEMBL document CHEMBL1124272, “Only one pharmacophore is required for the kappa opioid antagonist selectivity of norbinaltorphimine” (J Med Chem, 1988).

Key:
[1] = biological target: Mu-type opioid receptor (Cavia porcellus) (UniProt P97266); conditions: Ileum, 20 nM
Description: Antagonistic activity at Opioid receptor mu 1 in electrically stimulated Guinea pig ileum using morphine as the agonist at 20 nM concentration

[2] = biological target: Delta-type opioid receptor (Homo sapiens) (UniProt P41143); conditions: Cavia porcellus; Ileum; 20 nM
Description: Antagonistic activity at Opioid receptor delta 1 in electrically stimulated Guinea pig ileum using DADLE as the agonist at 20 nM concentration

[3] = biological target: Kappa-type opioid receptor (Cavia porcellus) (UniProt P41144); conditions: Ileum, 20 nM
Sequence of Kappa-type opioid receptor (Cavia porcellus) (P41144 whole entry): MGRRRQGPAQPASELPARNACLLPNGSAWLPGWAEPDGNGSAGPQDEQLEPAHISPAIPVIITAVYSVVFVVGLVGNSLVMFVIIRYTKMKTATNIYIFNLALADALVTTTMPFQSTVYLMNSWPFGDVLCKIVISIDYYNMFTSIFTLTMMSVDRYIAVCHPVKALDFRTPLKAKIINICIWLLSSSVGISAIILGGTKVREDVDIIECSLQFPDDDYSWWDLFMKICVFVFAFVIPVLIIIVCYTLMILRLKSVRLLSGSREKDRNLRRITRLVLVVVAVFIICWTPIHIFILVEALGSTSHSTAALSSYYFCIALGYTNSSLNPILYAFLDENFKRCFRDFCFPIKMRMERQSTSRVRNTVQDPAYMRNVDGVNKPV
Description: Antagonistic activity at Opioid receptor kappa 1 in electrically stimulated Guinea pig ileum using ethylketazocine as the agonist at 20 nM concentration

[4] = biological target: Mu-type opioid receptor (Cavia porcellus) (UniProt P97266); conditions: Ileum, 100 nM
Description: Antagonistic activity at Opioid receptor mu 1 in electrically stimulated Guinea pig ileum using morphine as the agonist at 100 nM

[5] = biological target: Delta-type opioid receptor (Homo sapiens) (UniProt P41143); conditions: Cavia porcellus; Ileum; 20 nM; remark: listed apart in the source
Description: Antagonistic activity at Opioid receptor delta 1 in electrically stimulated Guinea pig ileum using DADLE as the agonist at 20 nM

Sequence of Delta-type opioid receptor (Homo sapiens) (P41143 whole entry): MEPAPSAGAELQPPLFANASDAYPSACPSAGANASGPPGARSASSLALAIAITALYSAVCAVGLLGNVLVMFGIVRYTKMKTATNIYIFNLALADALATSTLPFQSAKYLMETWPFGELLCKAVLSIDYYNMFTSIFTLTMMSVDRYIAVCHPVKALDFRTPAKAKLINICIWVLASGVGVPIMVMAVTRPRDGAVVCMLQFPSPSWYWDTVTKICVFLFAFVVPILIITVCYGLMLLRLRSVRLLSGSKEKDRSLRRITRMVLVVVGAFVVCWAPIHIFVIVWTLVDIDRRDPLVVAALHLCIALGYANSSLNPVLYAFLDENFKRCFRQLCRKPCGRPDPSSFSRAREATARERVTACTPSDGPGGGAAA
Sequence of Mu-type opioid receptor (Cavia porcellus) (P97266 whole entry): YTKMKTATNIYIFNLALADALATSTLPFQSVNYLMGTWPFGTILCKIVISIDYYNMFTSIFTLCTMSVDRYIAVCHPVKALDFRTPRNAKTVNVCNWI

## Oc1ccc2c3c1O[C@H]1c4[nH]c5c(c4C[C@@]4(O)[C@@H](C2)N(CC2CC2)CC[C@]314)C[C@]1(O)[C@@H]2Cc3ccc(O)c4c3[C@]1(CCN2CC1CC1)[C@@H]5O4
[1]
  Ke: 1.1 nM
[2]
  Ke: 1.3 nM
[3]
  Ke: 0.08 nM

## Oc1ccc2c3c1O[C@@H]1c4[nH]c5c(c4C[C@]4(O)[C@H](C2)N(CC2CC2)CC[C@@]314)C[C@]1(O)[C@@H]2Cc3ccc(O)c4c3[C@]1(CCN2CC1CC1)[C@@H]5O4
[4]
  Ke: 77 nM

## Oc1ccc2c3c1O[C@H]1c4[nH]c5c(c4C[C@@]4(O)[C@@H](C2)N(CC2CC2)CC[C@]314)C[C@@]1(O)[C@H]2Cc3ccc(O)c4c3[C@@]1(CCN2CC1CC1)[C@H]5O4
[5]
  Ke: 10 nM
